Reference: BigSolDB 2.1

O=C(O)c1ccc(-c2ccccc2)cc1
solubility (mole fraction)
Details	in benzene	in ethanol	in ethyl acetate	in isobutanol	in isopropanol	in methanol	in methyl acetate	in n-butanol	in n-propanol
293.15 K	0.00101	0.00366	0.00654	0.00276	0.0039	0.00255	0.0051	0.00471	0.00426
298.15 K	0.00123	0.00436	0.00802	0.00349	0.00464	0.00304	0.00593	0.00559	0.00509
303.15 K	0.00149	0.00512	0.00923	0.00418	0.00563	0.0036	0.00704	0.00658	0.00598
308.15 K	0.00179	0.00606	0.0108	0.0051	0.00653	0.00424	0.00815	0.00775	0.00685
313.15 K	0.00214	0.0072	0.0124	0.0063	0.00779	0.00484	0.00942	0.00897	0.00817
318.15 K	0.00254	0.00831	0.0143	0.00781	0.00952	0.00584	0.0108	0.0105	0.00954
323.15 K	0.003	0.00962	0.0165	0.0093	0.0115	0.0066	0.0126	0.012	0.0112
328.15 K	0.00353	0.0109	0.019	0.0111	0.0134	0.0076	0.0145	0.0138	0.0132
